pIC50: −log10 of the molar value. Where a name gives a salt, the structure may show the parent alone. Read-outs that look alike come from different tables or passages of the source.
Columns and labels:
JAK2 = JAK2 (Homo sapiens (Human), UniProt O60674); assay: Jak biochemical HTRF assay, JAK2; settings: recombinant GST-tagged catalytic domain
Experimental: Jak Biochemical HTRF Assay Protocol
The ability of compounds to inhibit the activity of JAK1, JAK2, JAK3, and Tyk2 was measured using a recombinant purified GST-tagged catalytic domain for each enzyme (Invitrogen JAK1 #M4290, JAK2 #M4290, JAK3 #M4290, Tyk2 #M4290) in an HTRF format biochemical assay. […] The basic assay protocol is as follows: First, 250 nL of diluted compounds in DMSO were dispensed into the wells of a dry 384-well Black plate (Greiner #781076) using a Labcyte Echo 555 acoustic dispenser. Subsequent reagent additions employed an Agilent Bravo. […] After equilibration, 2 μL of 10×ATP in 1× assay buffer was added to initiate the kinase reaction and the plates were shaken and then incubated at room temperature for 120 minutes. […] Plates were shaken and centrifuged and then incubated 60 minutes at room temperature and then read on a Perkin Elmer Envision (λex=337 nm, λem=665 and 615 nm, TRF delay time=20 μs). HTRF signal=10,000*665 nm reading/615 nm reading. After normalization to untreated controls, the percent inhibition of the HTRF signal at each compound concentration was calculated. The plot of percent inhibition versus the log of compound concentration was fit with a 4-parameter dose response equation to calculate IC50 values.
Final Reaction Conditions were:
Examples of the instant invention were evaluated in JAK1 and JAK2 in vitro binding assays.

JAK1 = JAK1 (Homo sapiens (Human), UniProt P23458); assay: Jak biochemical HTRF assay, JAK1; settings: recombinant GST-tagged catalytic domain
[1] = HTRF biochemical assay, read-out: JAK2 IC50
[2] = HTRF biochemical assay, read-out: JAK1 IC50

Chain of JAK2 (O60674 849-1124): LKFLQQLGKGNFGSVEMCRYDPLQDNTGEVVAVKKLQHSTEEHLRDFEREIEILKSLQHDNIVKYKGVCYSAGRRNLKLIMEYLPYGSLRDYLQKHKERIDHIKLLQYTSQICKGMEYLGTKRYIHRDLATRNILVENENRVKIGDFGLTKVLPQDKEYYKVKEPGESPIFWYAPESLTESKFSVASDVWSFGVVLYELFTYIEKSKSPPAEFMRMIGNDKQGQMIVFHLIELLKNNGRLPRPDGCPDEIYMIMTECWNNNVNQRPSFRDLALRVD
Chain of JAK1 (P23458 875-1153): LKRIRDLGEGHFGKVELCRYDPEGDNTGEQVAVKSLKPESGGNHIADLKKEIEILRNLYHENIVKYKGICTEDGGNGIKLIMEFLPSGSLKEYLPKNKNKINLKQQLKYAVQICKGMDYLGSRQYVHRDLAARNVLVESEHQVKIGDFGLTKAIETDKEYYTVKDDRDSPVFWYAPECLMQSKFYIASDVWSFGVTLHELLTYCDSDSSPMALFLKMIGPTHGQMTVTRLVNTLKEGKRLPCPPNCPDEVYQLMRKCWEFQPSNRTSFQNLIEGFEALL

SMILES	pIC50 (JAK2; [1])	pIC50 (JAK1; [2])	pIC50 (JAK2; JAK2 IC50, HTRF biochemical assay)	pIC50 (JAK1; JAK1 IC50, HTRF biochemical assay)
N#C[C@@H]1CCCC[C@H]1n1nc(Nc2cccc(CNC(=O)c3ncccn3)c2)c2c(=O)[nH]ccc21 [Example 3-14, N-[3-({1-[(1R,2R)-2-cyanocyclohexyl]-4-oxo-4,5-dihydro-1H-pyrazolo[4,3-c]pyridin-3-yl}amino)benzyl]pyrimidine-2-carboxamide]	7.17	7.42	–	–
N#C[C@H]1CCC[C@@H]1n1nc(Nc2ccc(C(N)C(F)(F)F)cc2)c2c(=O)[nH]ccc21 (single isomer, unassigned) [Example 3-136, (1S,2S)-2-[3-({4-[(1R or 1S)-1-amino-2,2,2-trifluoroethyl]phenyl}amino)-4-oxo-4,5-dihydro-1H-pyrazolo[4,3-c]pyridin-1-yl]cyclopentanecarbonitrile]	9.15	9.55	–	–
CSCc1cc(Cn2ccnn2)cc(Nc2nn([C@H]3CCCC[C@@H]3C#N)c3cc[nH]c(=O)c23)c1 [Example 3-78, (1S,2S)-2-[3-({3-[(methylsulfanyl)methyl]-5-(1H-1,2,3-triazol-1-ylmethyl)phenyl}amino)-4-oxo-4,5-dihydro-1H-pyrazolo[4,3-c]pyridin-1-yl]cyclohexanecarbonitrile]	8.36	8.70	–	–
CC(C)(C)N1Cc2cc(Nc3nn([C@H]4CCC[C@@H]4C#N)c4cc[nH]c(=O)c34)ccc2S1(=O)=O [Example 3-100, (1S,2S)-2-{3-[(2-tert-butyl-1,1-dioxido-2,3-dihydro-1,2-benzisothiazol-5-yl)amino]-4-oxo-4,5-dihydro-1H-pyrazolo[4,3-c]pyridin-1-yl}cyclopentanecarbonitrile]	9.55	10.37	–	–
N#C[C@H]1CCCC[C@@H]1n1nc(Nc2ccc(C(=O)O)cc2)c2c(=O)[nH]ccc21 [Example 16-1, 4-((1-((1S,2S)-2-Cyanocyclohexyl)-4-oxo-4,5-dihydro-1H-pyrazolo[4,3-c]pyridin-3-yl)amino)benzoic acid, HCl]	8.47	9.80	–	–
N#C[C@H]1CCCC[C@@H]1n1nc(Nc2ccc3c(c2)CN(CC(F)(F)F)S3(=O)=O)c2c(=O)[nH]ccc21 [Example 3-58, (1S,2S)-2-(3-{[1,1-dioxido-2-(2,2,2-trifluoroethyl)-2,3-dihydro-1,2-benzisothiazol-5-yl]amino}-4-oxo-4,5-dihydro-1H-pyrazolo[4,3-c]pyridin-1-yl)cyclohexanecarbonitrile]	9.24	10.30	–	–
CN(C)[C@@H]1CC[C@H](n2nc(Nc3ccc(OC(F)(F)F)cc3)c3c(=O)[nH]ccc32)[C@@H](C#N)C1 [Example 5-25, (1S,2S,5R)-5-(dimethylamino)-2-(4-oxo-3-((4-(trifluoromethoxy)phenyl)amino)-4,5-dihydro-1H-pyrazolo[4,3-c]pyridin-1-yl)cyclohexanecarbonitrile]	7.66	9.02	–	–
CC(C)CN1Cc2cc(Nc3nn([C@H]4CCCC[C@@H]4C#N)c4cc[nH]c(=O)c34)ccc2S1(=O)=O [Example 3-62, (1S,2S)-2-(3-{[2-(2-methylpropyl)-1,1-dioxido-2,3-dihydro-1,2-benzisothiazol-5-yl]amino}-4-oxo-4,5-dihydro-1H-pyrazolo[4,3-c]pyridin-1-yl)cyclohexanecarbonitrile]	9.39	10.08	–	–
N#C[C@H]1CCCC[C@@H]1n1nc(Nc2ccc3c(c2)CN(C2CCSCC2)C3=O)c2c(=O)[nH]ccc21 [Example 15-60, (1S,2S)-2-(4-oxo-3-{[1-oxo-2-(tetrahydro-2H-thiopyran-4-yl)-2,3-dihydro-1H-isoindol-5-yl]amino}-4,5-dihydro-1H-pyrazolo[4,3-c]pyridin-1-yl)cyclohexanecarbonitrile]	9.29	9.96	–	–
N#CCC1(n2nc(Nc3ccc(C(N)C(F)F)cc3)c3c(=O)[nH]ccc32)CCCCC1 (single isomer, unassigned) [Example 9-2, (R or S)-2-(1-(3-(4-(1-Amino(-2,2-difluoroethyl)phenylamino)-4-oxo-4,5-dihydro-1H-pyrazolo[4,3-c]pyridin-1-yl)cyclohexyl)acetonitrile]	9.29	9.66	–	–
CC(=O)NCc1cc(Nc2nn([C@H]3CCCC[C@@H]3C#N)c3cc[nH]c(=O)c23)ccc1S(=O)(=O)N(C)C [Example 3-40, N-[5-({1-[(1S,2S)-2-cyanocyclohexyl]-4-oxo-4,5-dihydro-1H-pyrazolo[4,3-c]pyridin-3-yl}amino)-2-(dimethylsulfamoyl)benzyl]acetamide]	9.10	10.00	–	–
CC(C)(C)OC(=O)CN1Cc2cc(Nc3nn([C@H]4CCCC[C@@H]4C#N)c4cc[nH]c(=O)c34)ccc2S1(=O)=O [Example 3-151, tert-butyl [5-({1-[(1S,2S)-2-cyanocyclohexyl]-4-oxo-4,5-dihydro-1H-pyrazolo[4,3-c]pyridin-3-yl}amino)-1,1-dioxido-1,2-benzisothiazol-2(3H)-yl]acetate]	9.28	10.39	–	–
CC(C)(C)OC(=O)N1[C@@H]2CC[C@H]1C[C@H](c1ccc(Nc3nn([C@H]4CCCC[C@@H]4C#N)c4cc[nH]c(=O)c34)cc1)C2 (single isomer, unassigned) [Example 3-166]	–	–	8.19	9.02
N#C[C@H]1C[C@@H](N2CCC2)CC[C@@H]1n1nc(Nc2ccc(Cl)c(F)c2)c2c(=O)[nH]ccc21 [Example 5-4, (1S,2S,5S)-5-(azetidin-1-yl)-2-(3-((4-chloro-3-fluorophenyl)amino)-4-oxo-4,5-dihydro-1H-pyrazolo[4,3-c]pyridin-1-yl)cyclohexanecarbonitrile]	7.51	8.77	–	–

Further lines, with some results ahead:

pIC50 (JAK2; [1])	pIC50 (JAK1; [2])	SMILES	pIC50 (JAK2; JAK2 IC50, HTRF biochemical assay)	pIC50 (JAK1; JAK1 IC50, HTRF biochemical assay)
9.54	9.85	CC(C)N1Cc2ccc(Nc3nn([C@H]4CCCC[C@@H]4C#N)c4cc[nH]c(=O)c34)cc2C1 [Example 3-74, (1S,2S)-2-(3-{[2-(1-methylethyl)-2,3-dihydro-1H-isoindol-5-yl]amino}-4-oxo-4,5-dihydro-1H-pyrazolo[4,3-c]pyridin-1-yl)cyclohexanecarbonitrile]	–	–
9.32	10.16	CC(C)(C)N1Cc2cc(Nc3nn([C@H]4CCCC[C@@H]4C#N)c4cc[nH]c(=O)c34)ccc2C1=O [Example 15-20, (1S,2S)-2-{3-[(2-tert-butyl-1-oxo-2,3-dihydro-1H-isoindol-5-yl)amino]-4-oxo-4,5-dihydro-1H-pyrazolo[4,3-c]pyridin-1-yl}cyclohexanecarbonitrile]	–	–
9.55	10.25	CC1(C)Cc2cc(Nc3nn([C@H]4CCCC[C@@H]4C#N)c4cc[nH]c(=O)c34)ccc2S1(=O)=O [Example 21-1, (1S,2S)-2-(3-((2,2-Dimethyl-1,1-dioxido-2,3-dihydrobenzo[b]thiophen-5-yl)amino)-4-oxo-4,5-dihydro-1H-pyrazolo[4,3-c]pyridin-1-yl)cyclohexanecarbonitrile]	–	–
9.05	9.04	CC(C)N1Cc2cc(Nc3nn([C@H]4CCCC[C@@H]4C#N)c4cc[nH]c(=O)c34)ccc2C1C (single isomer, unassigned) [Example 19-1, (1S,2S)-2-(3-(((S or R)-2-isopropyl-1-methylisoindolin-5-yl)amino)-4-oxo-4,5-dihydro-1H-pyrazolo[4,3-c]pyridin-1-yl)cyclohexanecarbonitrile]	–	–
9.82	9.59	Cc1cc(Nc2nn([C@H]3CCCC[C@@H]3C#N)c3cc[nH]c(=O)c23)ccc1C(C)(C)n1nccn1 [Example 15-32, (1S,2S)-2-[3-({3-methyl-4-[1-methyl-1-(2H-1,2,3-triazol-2-yl)ethyl]phenyl}amino)-4-oxo-4,5-dihydro-1H-pyrazolo[4,3-c]pyridin-1-yl]cyclohexanecarbonitrile]	–	–
8.19	9.54	Cn1cc(-c2ccc(Nc3nn([C@H]4CCCC[C@@H]4C#N)c4cc[nH]c(=O)c34)cc2Cl)cn1 [Example 3-146, (1S,2S)-2-(3-{[3-chloro-4-(1-methyl-1H-pyrazol-4-yl)phenyl]amino}-4-oxo-4,5-dihydro-1H-pyrazolo[4,3-c]pyridin-1-yl)cyclohexanecarbonitrile]	–	–
9.60	10.18	Cc1cc(Nc2nn([C@H]3CCCC[C@@H]3C#N)c3cc[nH]c(=O)c23)ccc1C(C(C)C)n1ccnn1 (single isomer, unassigned) [Example 15-37, (1S,2S)-2-[3-({3-methyl-4-[(1S or 1R)-2-methyl-1-(1H-1,2,3-triazol-1-yl)propyl]phenyl}amino)-4-oxo-4,5-dihydro-1H-pyrazolo[4,3-c]pyridin-1-yl]cyclohexanecarbonitrile]	–	–
9.21	10.29	N#C[C@H]1CCCC[C@@H]1n1nc(Nc2ccc3c(c2)CNS3(=O)=O)c2c(=O)[nH]ccc21 [Example 3-54, (1S,2S)-2-{3-[(1,1-dioxido-2,3-dihydro-1,2-benzisothiazol-5-yl)amino]-4-oxo-4,5-dihydro-1H-pyrazolo[4,3-c]pyridin-1-yl}cyclohexanecarbonitrile]	–	–
